Reference: ChEMBL document CHEMBL1133328, “Heterocyclic bibenzimidazole derivatives as topoisomerase I inhibitors” (Bioorg Med Chem Lett, 2000)

How the values were obtained:
[1] = target: T1, DNA topoisomerase 1 (Homo sapiens) (UniProt P11387); test: Relative effective concentration that produces the same degree of cleavage on the plasmid DNA in the presence of human topoisomerase-1
T1 sequence (whole entry): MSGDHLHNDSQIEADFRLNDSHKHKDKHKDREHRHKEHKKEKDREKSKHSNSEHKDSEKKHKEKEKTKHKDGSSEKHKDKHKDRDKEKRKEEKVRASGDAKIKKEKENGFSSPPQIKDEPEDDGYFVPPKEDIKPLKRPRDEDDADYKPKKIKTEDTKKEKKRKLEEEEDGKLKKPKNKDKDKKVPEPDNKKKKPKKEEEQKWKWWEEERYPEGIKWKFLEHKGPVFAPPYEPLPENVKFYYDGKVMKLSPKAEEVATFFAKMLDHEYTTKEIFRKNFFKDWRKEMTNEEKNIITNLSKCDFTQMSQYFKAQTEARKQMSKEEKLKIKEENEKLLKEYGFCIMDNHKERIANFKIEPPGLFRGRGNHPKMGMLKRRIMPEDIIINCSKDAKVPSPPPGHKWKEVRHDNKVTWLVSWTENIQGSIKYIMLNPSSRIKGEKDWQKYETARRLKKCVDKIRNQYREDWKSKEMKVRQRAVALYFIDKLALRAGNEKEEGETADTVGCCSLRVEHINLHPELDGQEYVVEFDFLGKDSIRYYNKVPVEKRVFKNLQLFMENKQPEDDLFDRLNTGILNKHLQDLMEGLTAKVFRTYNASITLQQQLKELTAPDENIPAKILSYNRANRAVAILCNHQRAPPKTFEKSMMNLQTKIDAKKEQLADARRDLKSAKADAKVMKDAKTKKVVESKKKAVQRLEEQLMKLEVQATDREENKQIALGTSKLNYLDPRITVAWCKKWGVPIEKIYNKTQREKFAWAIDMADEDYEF

Nucleic Acid [2] = test: Compound-poly(dA).poly(dT) association constant at the melting temperature (80 degree C) of the compound-DNA complex was determined; type: nucleic-acid assay
Nucleic Acid [3] = test: Compound-poly(dA).poly(dT) association constant at the melting temperature (81.5 degree C) DNA complex was determined; type: nucleic-acid assay
Nucleic Acid [4] = test: Compound-poly(dA).poly(dT) association constant at the melting temperature (73.4 degree C) DNA complex was determined; type: nucleic-acid assay

SMILES | Topoisomerase-I activity [1] | K Tm (Nucleic Acid [2]) [M⁻¹] | K Tm (Nucleic Acid [3]) [M⁻¹] | K Tm (Nucleic Acid [4]) [M⁻¹]
c1ccc(-c2ccc3[nH]c(-c4ccc5[nH]c(-c6ccc7cc[nH]c7c6)nc5c4)nc3c2)cc1 | 5 | 1.9e+08 | – | –
c1ccc(-c2ccc3[nH]c(-c4ccc5[nH]c(-c6ccc7[nH]cnc7c6)nc5c4)nc3c2)cc1 | 1 | – | 2.8e+08 | –
c1ccc(-c2ccc3[nH]c(-c4ccc5[nH]c(-c6ccc7[nH]nnc7c6)nc5c4)nc3c2)cc1 | 1 | – | – | –
c1ccc(-c2ccc3[nH]c(-c4ccc5[nH]c(-c6ccc7[nH]ccc7c6)nc5c4)nc3c2)cc1 | 50 | – | – | 3.5e+07

Continued, values first:

Topoisomerase-I activity [1] | K Tm (Nucleic Acid [2]) [M⁻¹] | K Tm (Nucleic Acid [3]) [M⁻¹] | K Tm (Nucleic Acid [4]) [M⁻¹] | SMILES
> 100 | – | – | – | c1ccc(-c2ccc3[nH]c(-c4ccc5[nH]c(-c6ccc7nccnc7c6)nc5c4)nc3c2)cc1
1 | – | – | – | Oc1nc2ccc(-c3nc4cc(-c5nc6cc(-c7ccccc7)ccc6[nH]5)ccc4[nH]3)cc2nc1O
